In patent US8017791B2, “Tri-substituted 2-benzhydryl-5-benzylamino-tetrahydro-pyran-4-ol and 6-benzhydryl-4-benzylamino-tetrahydro-pyran-3-ol analogues, and novel, 3,6-disubstituted pyran derivatives” (Wayne State University, priority 2003, dated 2011):
Entries after “also recorded” stand apart in the source; their conditions may differ. Read-outs that look alike come from different tables or passages of the source.

Legend:
[1] = molecular target: T1, DAT (Rattus norvegicus, UniProt P23977); experiment: Inhibition of [3H]WIN 35,428 binding to DAT
T1 construct: rat striatum was the source for DAT, and cerebral cortex for SERT and NET; from tissue; P2 synaptosomal fraction for uptake
T1 sequence (P23977 whole entry): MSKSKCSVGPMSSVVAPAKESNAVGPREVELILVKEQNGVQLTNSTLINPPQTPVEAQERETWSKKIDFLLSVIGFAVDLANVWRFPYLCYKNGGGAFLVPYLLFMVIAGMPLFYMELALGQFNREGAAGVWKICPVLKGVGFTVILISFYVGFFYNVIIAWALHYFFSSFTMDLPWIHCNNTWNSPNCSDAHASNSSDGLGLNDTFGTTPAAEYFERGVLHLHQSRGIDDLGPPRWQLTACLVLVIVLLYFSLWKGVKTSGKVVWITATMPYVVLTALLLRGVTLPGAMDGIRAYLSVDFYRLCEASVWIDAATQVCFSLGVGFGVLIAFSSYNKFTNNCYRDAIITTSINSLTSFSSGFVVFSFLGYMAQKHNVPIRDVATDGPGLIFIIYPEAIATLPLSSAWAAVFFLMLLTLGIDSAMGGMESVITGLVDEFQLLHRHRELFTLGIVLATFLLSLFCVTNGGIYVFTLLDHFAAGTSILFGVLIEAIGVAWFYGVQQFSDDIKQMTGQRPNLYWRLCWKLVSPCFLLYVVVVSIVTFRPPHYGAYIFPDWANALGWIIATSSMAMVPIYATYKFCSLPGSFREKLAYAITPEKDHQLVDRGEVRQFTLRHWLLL
Experimental: (§1) Biology. […] Briefly, rat striatum was the source for DAT, and cerebral cortex for SERT and NET. […] Test compounds were dissolved in dimethyl sulfoxide (DMSO) and diluted out in 10% (v/v) DMSO. […] At least five triplicate concentrations of each test compound were studied, spaced evenly around the IC50 value. For DAT uptake assays, uptake of 50 nM [^3H]DA into rat striatal synaptosomes was measured exactly as described by us previously. Briefly, rat striatal P2 membrane fractions were incubated with test compounds for 8 min followed by the additional presence of [^3H]DA for 4 min at 25?. […] Construction of inhibition curves and dissolvement of test compounds were as described above.

[2] = molecular target: T2, SERT (Rattus norvegicus, UniProt P31652); experiment: Inhibition of [3H]citalopram binding to SERT; settings: for SERT binding/DAT binding: Table 3, selectivity ratio of IC50 values
T2 construct: rat striatum was the source for DAT, and cerebral cortex for SERT and NET; from tissue; host or cells: rat cerebral cortex
T2 sequence (P31652 whole entry): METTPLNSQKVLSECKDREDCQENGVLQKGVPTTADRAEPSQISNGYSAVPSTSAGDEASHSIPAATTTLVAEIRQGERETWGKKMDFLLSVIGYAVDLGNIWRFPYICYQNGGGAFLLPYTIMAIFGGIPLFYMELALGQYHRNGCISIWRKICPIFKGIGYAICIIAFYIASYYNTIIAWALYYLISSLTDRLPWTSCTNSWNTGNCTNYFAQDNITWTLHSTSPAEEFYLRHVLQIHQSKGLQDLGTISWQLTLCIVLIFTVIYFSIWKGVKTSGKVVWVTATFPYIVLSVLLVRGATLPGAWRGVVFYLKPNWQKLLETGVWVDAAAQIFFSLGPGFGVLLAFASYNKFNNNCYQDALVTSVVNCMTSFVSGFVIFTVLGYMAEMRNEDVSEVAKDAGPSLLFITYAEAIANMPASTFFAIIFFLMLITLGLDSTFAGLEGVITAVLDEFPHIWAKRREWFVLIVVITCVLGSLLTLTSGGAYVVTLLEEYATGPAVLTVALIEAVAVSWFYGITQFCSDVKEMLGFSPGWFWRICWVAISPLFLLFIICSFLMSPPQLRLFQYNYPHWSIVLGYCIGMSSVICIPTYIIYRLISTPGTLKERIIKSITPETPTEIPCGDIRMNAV
Experimental: as §1

[3] = molecular target: NET (Rattus norvegicus, UniProt Q9WTR4); experiment: Inhibition of [3H]nisoxetine binding to NET
Experimental: as §1

[4] = system: NET; experiment: Inhibition of [3H]nisoxetine binding to NET; set-up: species or system rat; settings: Table 3; selectivity ratio of IC50 values
Experimental: as §1

[5] = molecular target: T1, DAT; experiment: Inhibition of [3H]DA uptake by DAT into rat striatal synaptosomes; format: biochemical; settings: for [3H]DA uptake/DAT binding: Table 3, ratio of IC50 values
Experimental: as §1

[6] = molecular target: T2, SERT; experiment: SERT uptake inhibition, [3H]5-HT; format: biochemical; settings: Table 4; for IC50: rat brain, read-out: SERT uptake, IC50 [3H]5-HT; for blockade of both SERT and NET (SNRI profile), in words: in vitro data
[7] = Table 2, average ± SEM, read-out: SERT binding, IC50 [3H]citalopram
[8] = Table 2, average ± SEM of three to eight experiments, read-out: DAT binding, IC50, [3H]Win 35,428
[9] = Table 2, average ± SEM, read-out: NET binding, IC50 [3H]nisoxetine
[10] = Table 2, average ± SEM, read-out: DAT uptake, IC50 [3H]DA
[11] = Table 4, rat brain, read-out: DAT binding, IC50, [3H]Win 35,428
[12] = Table 4, rat brain, read-out: DAT uptake, IC50 [3H]DA

Structure (SMILES) | IC50 [2, 7] [nM] | SERT binding/DAT binding [2] | NET binding/DAT binding [4] | IC50 [1, 8] [nM] | IC50 [3, 9] [nM] | IC50 [5, 10] [nM] | [3H]DA uptake/DAT binding [5] | further results
c1ccc(C(c2ccccc2)C2CCC(NCc3c[nH]c4ccccc34)CO2)cc1 (stereo not drawn) [Compound 16f, Cis-(6-benzhydryl-tetrahydropyran-3-yl)-(3-indole-methyl)-amine] | 2590 | 3.3 | 2.3 |  |  |  |  | IC50 ([1]; read-out: IC50 at the DAT): 794 nM; IC50 ([3]; read-out: IC50 for the NET): 1860 nM
c1ccc(CN[C@H]2CC[C@@H](C(c3ccccc3)c3ccccc3)NC2)cc1 [Compound 1a, reference compound] |  |  |  |  |  |  |  | IC50 ([3]; read-out: Inhibition of [3H]nisoxetine binding to NET, IC50): 612 ± 130 nM
c1ccc(CN[C@H]2CC[C@@H](C(c3ccccc3)c3ccccc3)OC2)cc1 (relative stereo) [Compound 16k, Cis-(6-benzhydryl-tetrahydropyran-3-yl)-benzyl-amine] | 1580 ± 97 | 5.20 | 0.90 | 303 ± 14 | 274 ± 29 | 242 ± 39 | 0.79 | IC50 ([1]; Table 1, rat striatum, read-out: Inhibition of [3H]Win 35,428 binding to DAT IC50): 303 ± 14 nM; IC50 ([5]; Table 1, read-out: Inhibition of [3H]DA uptake by DAT, IC50): 242 ± 39 nM; IC50 ([2]; Table 1, read-out: Inhibition of [3H]citalopram binding to SERT, IC50): 1580 ± 97 nM; IC50 ([3]; Table 1, read-out: Inhibition of [3H]nisoxetine binding to NET, IC50): 274 ± 29 nM
Nc1ccc(CN[C@H]2CC[C@@H](C(c3ccccc3)c3ccccc3)OC2)cc1 (relative stereo) [Compound 16o, Cis-(6-benzhydryl-tetrahydropyran-3-yl)-(4-amino-benzyl)-amine] |  |  |  |  |  |  | 1.02 | potency at NET, in words [3]: high potency at NET; also recorded: high potency for the NET
Oc1ccc(CN[C@H]2CC[C@@H](C(c3ccccc3)c3ccccc3)OC2)cc1 [(−)-37a, cis-(3S,6S)-(6-benzhydryl-tetrahydropyran-3-yl)-(4-hydroxy-benzyl)-amine] |  |  |  |  |  |  |  | IC50 [1, 11]: 280 ± 8 nM; IC50 [5, 12]: 114 ± 8 nM; IC50 [6]: 42 ± 3 nM; blockade of both SERT and NET (SNRI profile), in words [6]: potent blockers for both SERT and NET; blockade of both SERT and NET (SNRI profile), in words ([6]; listed as (−)37a): dual transport blockers
Oc1ccc(CN[C@@H]2CC[C@H](C(c3ccccc3)c3ccccc3)OC2)cc1 [(+)-37a, cis-(3R,6R)-(6-benzhydryl-tetrahydropyran-3-yl)-(4-hydroxy-benzyl)-amine] |  |  |  |  |  |  |  | IC50 [1, 11]: 141 ± 2.2 nM; IC50 [5, 12]: 90.7 ± 4 nM; IC50 [6]: 209 ± 25 nM
N#Cc1ccc(CN[C@H]2CC[C@@H](C(c3ccccc3)c3ccccc3)OC2)cc1 (relative stereo) [Compound 16c, Cis-(6-benzhydryl-tetrahydropyran-3-yl)-(4-cyano-benzyl)-amine] | 863 ± 52 |  |  |  | 1580 |  | 1.1 | 
c1ccc(C(c2ccccc2)C2CCC(NCc3cc4ccccc4[nH]3)CO2)cc1 (stereo not drawn) [Compound 16g, Cis-(6-benzhydryl-tetrahydropyran-3-yl)-(2-indole-methyl)-amine] | 1640 | 7.2 | 1.8 |  |  | 135 ± 47.5 | 0.60 | fold more active at DAT compared to the 3-substituted 16f [1]: 3.5 fold; IC50 ([1]; read-out: IC50 at the DAT): 227 nM; IC50 ([3]; read-out: IC50 for the NET): 401 nM

Further lines, with some results ahead:

IC50 [2, 7] [nM] | SERT binding/DAT binding [2] | NET binding/DAT binding [4] | IC50 [1, 8] [nM] | IC50 [3, 9] [nM] | IC50 [5, 10] [nM] | [3H]DA uptake/DAT binding [5] | Structure (SMILES) | further results
3520 | 9.6 | 1.9 | 368 ± 85 | 695 ± 142 |  |  | Fc1ccc(CN[C@H]2CC[C@@H](C(c3ccccc3)c3ccccc3)OC2)cc1F (relative stereo) [Compound 16j, Cis-(6-benzhydryl-tetrahydropyran-3-yl)-(3,4-difluoro-benzyl)-amine] | 
2360 ± 92 | 11.69 | 2.93 | 202 ± 13 | 592 ± 12 | 251 ± 14 | 1.24 | Brc1ccc(CN[C@H]2CC[C@@H](C(c3ccccc3)c3ccccc3)OC2)cc1 (relative stereo) [Compound 16l, Cis-(6-benzhydryl-tetrahydropyran-3-yl)-(4-bromo-benzyl)-amine] | 
780 ± 84 | 1.9 | 0.36 | 400 ± 31 | 144 ± 25 | 880 ± 136 |  | Clc1ccc(CN[C@H]2CC[C@@H](C(c3ccccc3)c3ccccc3)OC2)cc1Cl (relative stereo) [Compound 16i, Cis-(6-benzhydryl-tetrahydropyran-3-yl)-(3,4-dichloro-benzyl)-amine] | 
